According to ChEMBL document CHEMBL1201862, “PubChem BioAssay data set” (2004):
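Step 1: Grow cells in 96-well plates. Step 2: Expose to compound for 48 hours at 5 concentrations. Step 3: Interpolate endpoints linearly; if unreached, use highest concentration. GI50 marks 50% less growth.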 Active and inactive are the calls of the source. Cut-off read from the data, not from the text of the source: active = GI50 up to about 1.1 µM and inactive = higher.

How the values were obtained:
Assay in all cases: inhibition of tumour cell growth, NCI panel, 48 h
SK-OV-3 = system: SK-OV-3
786-0 = system: 786-0
NCI-H460 = system: NCI-H460
A498 = system: A498
NCI-H23 = system: NCI-H23
MDA-MB-435 = system: MDA-MB-435
IGROV-1 = system: IGROV-1
Hs-578T = system: Hs-578T
U-251 = system: U-251
SR = system: SR
EKVX = system: EKVX
OVCAR-8 = system: OVCAR-8
SK-MEL-2 = system: SK-MEL-2
SN12C = system: SN12C
HOP-62 = system: HOP-62
MCF7 = system: MCF7
ACHN = system: ACHN
MDA-N = system: MDA-N
SNB-19 = system: SNB-19
COLO 205 = system: COLO 205
HOP-92 = system: HOP-92
SK-MEL-5 = system: SK-MEL-5
SNB-75 = system: SNB-75
SK-MEL-28 = system: SK-MEL-28
NCI-H522 = system: NCI-H522
NCI/ADR-RES = system: NCI/ADR-RES
HT-29 = system: HT-29
NCI-H226 = system: NCI-H226
UO-31 = system: UO-31
DU-145 = system: DU-145
CAKI-1 = system: CAKI-1
MOLT-4 = system: MOLT-4
SF-295 = system: SF-295
A549 = system: A549
SF-539 = system: SF-539
BT-549 = system: BT-549
SF-268 = system: SF-268
HCT-116 = system: HCT-116
HL-60 = system: HL-60
MDA-MB-231 = system: MDA-MB-231
OVCAR-4 = system: OVCAR-4
T47D = system: T47D
Malme-3M = system: Malme-3M
K562 = system: K562
TK-10 = system: TK-10
RXF 393 = system: RXF 393
HCC 2998 = system: HCC 2998
OVCAR-3 = system: OVCAR-3
SW-620 = system: SW-620
RPMI-8226 = system: RPMI-8226
UACC-257 = system: UACC-257
HCT-15 = system: HCT-15
M14 = system: M14
PC-3 = system: PC-3
LOX IMVI = system: LOX IMVI
OVCAR-5 = system: OVCAR-5
CCRF-CEM = system: CCRF-CEM
UACC-62 = system: UACC-62
KM12 = system: KM12

With `COC(=O)/C(C#N)=C(\Nc1ccccc1)N1CCOCC1` the GI50 (SK-OV-3) was > 100 µM (inactive), the GI50 (786-0) was > 100 µM (inactive) and the GI50 (NCI-H460) was > 100 µM (inactive). The GI50 (A498) was > 100 µM (inactive), the GI50 (NCI-H23) was > 100 µM (inactive) and the GI50 (MDA-MB-435) was > 100 µM (inactive). The GI50 (IGROV-1) was > 100 µM (inactive), the GI50 (Hs-578T) was > 100 µM (inactive) and the GI50 (U-251) was > 100 µM (inactive). For the same molecule, the GI50 (SR) was > 100 µM (inactive), the GI50 (EKVX) was > 100 µM (inactive) and the GI50 (OVCAR-8) was > 100 µM (inactive). For the same molecule, the GI50 (SK-MEL-2) was > 100 µM (inactive), the GI50 (SN12C) was > 100 µM (inactive) and the GI50 (HOP-62) was > 100 µM (inactive). For the same molecule, the GI50 (MCF7) was > 100 µM (inactive), the GI50 (ACHN) was > 100 µM (inactive) and the GI50 (MDA-N) was > 100 µM (inactive). The GI50 (SNB-19) was > 100 µM (inactive), the GI50 (COLO 205) was > 100 µM (inactive) and the GI50 (HOP-92) was > 100 µM (inactive). For the same molecule, the GI50 (SK-MEL-5) was > 100 µM (inactive), the GI50 (SNB-75) was > 100 µM (inactive) and the GI50 (SK-MEL-28) was > 100 µM (inactive). For the same molecule, the GI50 (NCI-H522) was > 100 µM (inactive), the GI50 (NCI/ADR-RES) was > 100 µM (inactive) and the GI50 (HT-29) was > 100 µM (inactive). The GI50 (NCI-H226) was > 100 µM (inactive), the GI50 (UO-31) was > 100 µM (inactive) and the GI50 (DU-145) was > 100 µM (inactive). For the same molecule, the GI50 (CAKI-1) was > 100 µM (inactive), the GI50 (MOLT-4) was > 100 µM (inactive) and the GI50 (SF-295) was > 100 µM (inactive). For the same molecule, the GI50 (A549) was > 100 µM (inactive), the GI50 (SF-539) was > 100 µM (inactive) and the GI50 (BT-549) was > 100 µM (inactive). The GI50 (SF-268) was > 100 µM (inactive), the GI50 (HCT-116) was > 100 µM (inactive) and the GI50 (HL-60) was > 100 µM (inactive). The GI50 (MDA-MB-231) was > 100 µM (inactive), the GI50 (OVCAR-4) was > 100 µM (inactive) and the GI50 (T47D) was > 100 µM (inactive). For the same molecule, the GI50 (Malme-3M) was > 100 µM (inactive), the GI50 (K562) was > 100 µM (inactive) and the GI50 (TK-10) was > 100 µM (inactive). The GI50 (RXF 393) was > 100 µM (inactive), the GI50 (HCC 2998) was > 100 µM (inactive) and the GI50 (OVCAR-3) was > 100 µM (inactive). The GI50 (SW-620) was > 100 µM (inactive), the GI50 (RPMI-8226) was > 100 µM (inactive) and the GI50 (UACC-257) was > 100 µM (inactive). For the same molecule, the GI50 (HCT-15) was greater than 100 µM, the GI50 (M14) was > 100 µM (inactive) and the GI50 (PC-3) was > 100 µM (inactive). The GI50 (LOX IMVI) was > 100 µM (inactive) and the GI50 (OVCAR-5) was > 100 µM (inactive).
In the case of `Cc1cc2c(cc1C)C(=O)C1(C2)Cc2cc3c(cc2C1=O)CCC3` (stereo not drawn), the GI50 (SK-OV-3) is reported as > 100 µM (inactive), the GI50 (786-0) is reported as > 100 µM (inactive) and the GI50 (NCI-H460) is reported as > 100 µM (inactive). The GI50 (A498) was > 100 µM (inactive), the GI50 (NCI-H23) was > 100 µM (inactive) and the GI50 (MDA-MB-435) was > 100 µM (inactive). The GI50 (IGROV-1) was > 100 µM (inactive), the GI50 (Hs-578T) was > 100 µM (inactive) and the GI50 (CCRF-CEM) was > 100 µM (inactive). The GI50 (U-251) was > 100 µM (inactive), the GI50 (SR) was > 100 µM (inactive) and the GI50 (EKVX) was > 100 µM (inactive). For the same molecule, the GI50 (OVCAR-8) was > 100 µM (inactive), the GI50 (SK-MEL-2) was > 100 µM (inactive) and the GI50 (SN12C) was > 100 µM (inactive). The GI50 (MCF7) was > 100 µM (inactive), the GI50 (ACHN) was > 100 µM (inactive) and the GI50 (MDA-N) was > 100 µM (inactive). For the same molecule, the GI50 (SNB-19) was > 100 µM (inactive), the GI50 (COLO 205) was > 100 µM (inactive) and the GI50 (HOP-92) was > 100 µM (inactive). The GI50 (SK-MEL-5) was > 100 µM (inactive), the GI50 (SNB-75) was > 100 µM (inactive) and the GI50 (SK-MEL-28) was > 100 µM (inactive). For the same molecule, the GI50 (NCI-H522) was > 100 µM (inactive), the GI50 (NCI/ADR-RES) was > 100 µM (inactive) and the GI50 (HT-29) was > 100 µM (inactive). For the same molecule, the GI50 (NCI-H226) was > 100 µM (inactive), the GI50 (UO-31) was > 100 µM (inactive) and the GI50 (DU-145) was > 100 µM (inactive). The GI50 (CAKI-1) was > 100 µM (inactive), the GI50 (MOLT-4) was > 100 µM (inactive) and the GI50 (SF-295) was > 100 µM (inactive). The GI50 (A549) was > 100 µM (inactive), the GI50 (SF-539) was 4.95 µM (inactive) and the GI50 (UACC-62) was > 100 µM (inactive). For the same molecule, the GI50 (BT-549) was > 100 µM (inactive), the GI50 (SF-268) was > 100 µM (inactive) and the GI50 (HCT-116) was > 100 µM (inactive). For the same molecule, the GI50 (HL-60) was > 100 µM (inactive), the GI50 (MDA-MB-231) was > 10 µM (inactive) and the GI50 (OVCAR-4) was > 100 µM (inactive). The GI50 (T47D) was > 100 µM (inactive), the GI50 (Malme-3M) was > 100 µM (inactive) and the GI50 (K562) was > 100 µM (inactive). For the same molecule, the GI50 (TK-10) was > 100 µM (inactive), the GI50 (RXF 393) was > 100 µM (inactive) and the GI50 (KM12) was > 100 µM (inactive). For the same molecule, the GI50 (HCC 2998) was > 100 µM (inactive), the GI50 (OVCAR-3) was > 100 µM (inactive) and the GI50 (SW-620) was > 100 µM (inactive). The GI50 (RPMI-8226) was > 100 µM (inactive), the GI50 (UACC-257) was > 100 µM (inactive) and the GI50 (HCT-15) was greater than 100 µM. The GI50 (M14) was 44.1 µM (inactive), the GI50 (PC-3) was > 100 µM (inactive) and the GI50 (OVCAR-5) was > 100 µM (inactive).
